Experimental data from US8652523B2, “Oral pharmaceutical formulation in the form of a plurality of microcapsules for prolonged release of active principle(s) with slow solubility” (Flamel Technologies, priority 2002, dated 2014).
Converted amounts (≈) assume the structure as drawn.

Key:
[1] = Increase in solubility of spironolactone in aqueous solution at pH 6.8, 25° C.; assay type: physicochemical; settings: pH 6.8, aqueous buffer, without solubilizing agent
[2] = Method for measuring solubility of AP in aqueous solution containing solubilizing agent Cremophor RH 40 (37° C., 6 hours, filtration, HPLC); assay type: physicochemical
Description: The solution is stirred at 37° C. for 6 hours and then filtered through a filter with a 0.2 μm pore diameter. The content of solubilized AP is evaluated by HPLC chromatography or any other suitable analytical technique.
The ability of the solubilizing agent, made of Cremophor® RH 40, to solubilize an active principle, made up of spironolactone, is tested according to the following method for measuring solubility:
The AP is introduced into an aqueous solution containing the solubilizing agent. The solution is stirred at 37° C. for 6 hours and is then filtered through a filter with a 0.2 μm pore diameter. The content of solubilized AP is evaluated by HPLC.

solubility [1]: ~38 µg/mL (≈ 91.2 µM) | (Spironolactone) dissolved in solution ([2]; Cremophor RH 40 0 % w/w at 37° C.): <0.1 mg/mL | (Spironolactone) dissolved in solution ([2]; Cremophor RH 40 1 % w/w at 37° C.): 0.1 mg/mL | (Spironolactone) dissolved in solution ([2]; Cremophor RH 40 2 % w/w at 37° C.): 0.2 mg/mL | (Spironolactone) dissolved in solution ([2]; Cremophor RH 40 5 % w/w at 37° C.): 0.4 mg/mL | (Spironolactone) dissolved in solution ([2]; Cremophor RH 40 10 % w/w at 37° C.): 0.8 mg/mL | (Spironolactone) dissolved in solution ([2]; Cremophor RH 40 20 % w/w at 37° C.): 1.4 mg/mL
Compound: CC(=O)S[C@@H]1CC2=CC(=O)CC[C@]2(C)[C@H]2CC[C@@]3(C)[C@@H](CC[C@@]34CCC(=O)O4)[C@H]12 [spironolactone]
